The text below walks through data of US20240002391A1, “4-ALKOXYPYRROLO[2,1-F][1,2,4]TRIAZINES AND PREPARATION AND USES THEREOF” (BioSplice Therapeutics, Inc., priority 2022, published 2024).

For test [1], the system named is Tau phosphorylation at Thr212 (pThr212) in HEK293T cells transfected with DYRK1A and MAPT. Briefly: Tau phosphorylation phosphoTau (Thr212) AlphaLISA assay in HEK293T cells transfected with DYRK1A and MAPT. The test is classed as cell-based. As to conditions: HEK-293T, HEK293T cells transiently transfected with human DYRK1A and MAPT, compound treatment 18-24 hours, read-out: pTau (Thr212) EC50. On the procedure:
Representative compounds were screened using the assay procedure for tau phosphorylation activity described below.
HEK293T cells (ATCC, CRL3216) cultured in DMEM (Thermo Fisher Scientific, 10566024) supplemented with 10% FBS (Coming, 35-011—CV) and Penicillin/Streptomycin (Thermo Fisher Scientific, 15140163) were seeded in a 75 cm^2 flask at 8.1×10^6 cells/flask. The HEK293T cells were then transiently transfected with 5 μg DYRK1A (NM_001396) human untagged clone (OriGene, SC314641) and 2.5 μg MAPT (441 a.a. Tau gene) (NM_005910) human untagged clone (OriGene, TP313312) using Lipofectamine 3000 (Thermo Fisher Scientific, L30000015) and incubated for 20-30 hours in a humidified incubator at 37° C. and 5% CO^2. Post-incubation, HEK293T cells transfected with the DYRK1A and MAPT expression vectors were harvested and seeded in BioCoat poly-D lysine coated 96-well plates (Coming, 354461) at 3×10^4 cells/well.
The above synthesized compounds were screened using the cell assay procedure to assess decreased Tau phosphorylation at Thr212 (pThr212) described below.
Each compound was dissolved in DMSO (Sigma-Aldrich, D8418-100 mL) as a 10 mM stock. 10 mM stocks were serially diluted 1:3, 10-point dose-response curve and added to the cells with a final concentration ranging from 20 μM to 1.1 nM. Cells were treated with compounds in duplicate and incubated for 18-24 hours in a humidified incubator at 37° C. and 5% CO^2.
Following the overnight compound treatment, cells were lysed with 1X Alpha Surefire Ultra Lysis Buffer (Perkin Elmer, ALSU-LB-100ML) complemented with 1X Halt Phosphatase Inhibitor Cocktail (Thermo Fisher Scientific, 78427) and 1X Halt Protease Inhibitor Cocktail (Thermo Fisher Scientific, 78438). Lysates were spun down at 12,000 g for 10 min to remove any cellular debris and 5 μL of lysates were dispensed into a 384-well Opti-Plate (Perkin Elmer, 6007290) for the measurement of Tau phosphorylation in the phosphoTau (Thr212) AlphaLISA assay. Donor antibody, biotinylated HT7Tau (Thermo Fisher Scientific, MN1000B), and acceptor antibody, pThr212Tau (Thermo Fisher Scientific, 44740G) were both added to the cell lysates at a final concentration of 3 nM and incubated for 1 hour at room temperature. Following incubation of the lysates with the donor and acceptor antibodies, anti-rabbit IgG(Fc specific) AlphaLISA acceptor beads (Perkin Elmer, AL104C) were added at a 10 ug/mL final concentration and incubated for 1 hour at room temperature protected from light. Lastly, AlphaScreen streptavidin donor beads (PerkinElmer, 6760002) were added at 40 ug/mL final concentration and incubated for 1 hour at room temperature protected from light. Plates were read at […] on the EnVision Multilabel Plate Reader (Perkin Elmer). The phospho-Tau (Thr212) AlphaLISA signal was used to plot, draw the curve fitting, and determine each compound's EC50 in Prism (GraphPad).
In general terms: Bead proximity is the source of the signal in Alpha formats.

Test [2] concerns the target recombinant DYRK1A kinase (Homo sapiens (Human), UniProt Q13627). Briefly: DYRK1A kinase assay (Ser/Thr 18 peptide Z-lyte FRET). In kind it is biochemical. The following applies: DYRK1A kinase activity, Z-lyte Ser/Thr 18 peptide, 15 μM ATP; method text calls the value IC50; read-out: EC50 (the source's name). The gist of the method: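 Recombinant enzyme (0.25 μg/mL final) was incubated with 15 μM ATP, 4 μM Ser/Thr 18 peptide and compound (11-point 1:3 series from 10 μM) for 1 h at room temperature, in duplicate. Development reagent was added for 1 h, and coumarin/fluorescein emission ratio gave % phosphorylation; IC50 by non-linear regression.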

As to `COc1nc(N[C@H]2CCN(C)C[C@H]2F)nn2ccc(-c3ccc4ncccc4c3)c12` [Compound 310, N-((3R,4S)-3-Fluoro-1-methylpiperidin-4-yl)-4-methoxy-5-(quinolin-6-yl)pyrrolo[2,1-f][1,2,4]triazin-2-amine], in test [1], the EC50 is 109 nM. In test [2], the IC50 amounted to 4.7 nM.
As to `COc1nc(N[C@H]2CCN(C3COC3)C[C@H]2F)nn2ccc(-c3ccc4ncccc4c3)c12` [Compound 318, N-((3R,4S)-3-Fluoro-1-(oxetan-3-yl)piperidin-4-yl)-4-methoxy-5-(quinolin-6-yl)pyrrolo[2,1-f][1,2,4]triazin-2-amine], in test [1], the EC50 was determined as 75.4 nM. For the same compound, in test [2], the IC50 worked out at 4.2 nM.
The like results for `COc1nc(N[C@@H]2CN(C(C)=O)C[C@@H]2F)nn2ccc(-c3ccc4nccnc4c3)c12` [Compound 352, 1-((3S,4R)-3-Fluoro-4-((4-methoxy-5-(quinoxalin-6-yl)pyrrolo[2,1-f][1,2,4]triazin-2-yl)amino)pyrrolidin-1-yl)ethan-1-one] were, in that order, 39.4 nM and 2.2 nM.
The like results for `C[C@]1(O)CC[C@H](Nc2nc(OC3COC3)c3c(-c4ccc5nccnc5c4)ccn3n2)CC1` [Compound 392, trans-1-Methyl-4-((4-(oxetan-3-yloxy)-5-(quinoxalin-6-yl)pyrrolo[2,1-f][1,2,4]triazin-2-yl)amino)cyclohexan-1-ol] were, in that order, 25.2 nM and 1.4 nM.
The matching figures for `COc1nc(N[C@H]2CC[C@](C)(O)CC2)nn2ccc(-c3cc(F)c4nccn4c3)c12` [Compound 431, (1r,4r)-4-((5-(8-Fluoroimidazo[1,2-a]pyridin-6-yl)-4-methoxypyrrolo[2,1-f][1,2,4]triazin-2-yl)amino)-1-methylcyclohexan-1-ol]: 129 nM and 2.3 nM.
`COc1nc(N[C@@H]2CCC(F)(F)C2)nn2ccc(-c3cnc4nccn4c3)c12` [Compound 943, (R)—N-(3,3-Difluorocyclopentyl)-5-(imidazo[1,2-a]pyrimidin-6-yl)-4-methoxypyrrolo[2,1-f][1,2,4]triazin-2-amine]: the EC50 in test [1] was 57.5 nM. Besides, the IC50 in test [2] amounted to 3.6 nM.

One may read the EC50 as the concentration that produces a half-maximal response.
